Test results published in US12156876B2, “Formulations of influenza therapeutics” (priority 2018, dated 2024).
pEC50: −log10 of the molar value.

How the values were obtained:
influenza = assay: anti-influenza potency; assay type: cell-based
[1] = BALB/C, mouse, in vivo

For `O=C(O)C1C2CCC(CC2)C1n1cc(F)c2cnc(-c3c[nH]c4ncc(Cl)cc34)nc21` (centres unmarked) [Compound 1, 3-(2-(5-chloro-1H-pyrrolo[2,3-b]pyridin-3-yl)-5-fluoro-7H-pyrrolo[2,3-d]pyrimidin-7-yl)bicyclo[2.2.2]octane-2-carboxylic acid], the pEC50 (influenza) was 8.52 to 10.00 and the “drug level excess of the therapeutic dose (anti-influenza potency EC50)” value [1] was “at least 100 fold”.
